The supplement of paper PMC13207355
Where a name gives a salt, the structure may show the parent alone.

Experiments:
Conditions in all cases: exposure time: 72 h
[1] = test system: E13 (patient-derived glioblastoma stem cells of classical subtype); experiment: surviving fraction (nuclei count normalised to DMSO); higher = more cells surviving (less toxic)
[2] = test system: E21 (patient-derived glioblastoma stem cells of mesenchymal subtype); experiment: as above
[3] = test system: E28 (patient-derived glioblastoma stem cells of classical subtype); experiment: as above
[4] = test system: E31 (patient-derived glioblastoma stem cells of proneural subtype); experiment: as above
[5] = test system: E34 (patient-derived glioblastoma stem cells of proneural subtype); experiment: as above
[6] = test system: E57 (patient-derived glioblastoma stem cells of mesenchymal subtype); experiment: as above
[7] = test system: FT3469 (normal neural stem cell line); experiment: as above
[8] = test system: E13; experiment: phenotypic distance (Euclidean, principal components) from DMSO controls (arbitrary units); higher = stronger morphological change
[9] = test system: E21; experiment: as above
[10] = test system: E28; experiment: as above
[11] = test system: E31; experiment: as above
[12] = test system: E34; experiment: as above
[13] = test system: E57; experiment: as above
[14] = test system: FT3469; experiment: as above
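Wherever phenotypic distance (Euclidean, principal components) from DMSO controls is given: cell Painting imaging in 384-well plates, CellProfiler features reduced to at least 20 principal components, Euclidean distance versus same-plate DMSO vehicle wells (0.1% v/v), median over six images per well.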
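Wherever surviving fraction (nuclei count normalised to DMSO) is given: nuclei counted by high-content imaging of Hoechst-stained cells in laminin-coated 384-well plates, relative to 0.1% DMSO vehicle wells, with staurosporine as cell-death control.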

C=CC(=O)Nc1cc(Nc2nccc(-c3cn(C)c4ccccc34)n2)c(OC)cc1N(C)CCN(C)C [Osimertinib mesylate]
Conditions	phenotypic distance	surviving fraction
[1], 4.1 nM	–	0.883
[1], 12.3 nM	–	1
[1], 37 nM	–	0.978
[1], 111.1 nM	–	0.951
[1], 333.3 nM	–	1.03
[1], 1000 nM	–	0.935
[1], 3000 nM	–	0.547
[2], 4.1 nM	–	1.11
[2], 12.3 nM	–	0.955
[2], 37 nM	–	0.892
[2], 111.1 nM	–	1.05
[2], 333.3 nM	–	0.931
[2], 1000 nM	–	0.909
[2], 3000 nM	–	0.455
[3], 4.1 nM	–	0.973
[3], 12.3 nM	–	1.04
[3], 37 nM	–	0.86
[3], 111.1 nM	–	1.01
[3], 333.3 nM	–	0.864
[3], 1000 nM	–	0.922
[3], 3000 nM	–	0.496
[4], 4.1 nM	–	0.963
[4], 12.3 nM	–	0.947
[4], 37 nM	–	1.02
[4], 111.1 nM	–	0.92
[4], 333.3 nM	–	0.743
[4], 1000 nM	–	0.773
[4], 3000 nM	–	0.435
[5], 4.1 nM	–	0.904
[5], 12.3 nM	–	0.975
[5], 37 nM	–	0.973
[5], 111.1 nM	–	0.878
[5], 333.3 nM	–	1.13
[5], 1000 nM	–	0.996
[5], 3000 nM	–	0.702
[6], 4.1 nM	–	0.979
[6], 12.3 nM	–	0.953
[6], 37 nM	–	0.84
[6], 111.1 nM	–	0.864
[6], 333.3 nM	–	0.875
[6], 1000 nM	–	0.79
[6], 3000 nM	–	0.547
[7], 4.1 nM	–	0.963
[7], 12.3 nM	–	0.989
[7], 37 nM	–	1.02
[7], 111.1 nM	–	1.03
[7], 333.3 nM	–	0.843
[7], 1000 nM	–	1.07
[7], 3000 nM	–	0.638
[8], 4.1 nM	0.974	–
[8], 12.3 nM	0.598	–
[8], 37 nM	0.826	–
[8], 111.1 nM	0.647	–
[8], 333.3 nM	1.84	–
[8], 1000 nM	1.28	–
[8], 3000 nM	2.96	–
[9], 4.1 nM	0.814	–
[9], 12.3 nM	0.422	–
[9], 37 nM	1.04	–
[9], 111.1 nM	0.922	–
[9], 333.3 nM	1.1	–
[9], 1000 nM	1.12	–
[9], 3000 nM	4.6	–
[10], 4.1 nM	0.567	–
[10], 12.3 nM	0.684	–
[10], 37 nM	0.633	–
[10], 111.1 nM	1.15	–
[10], 333.3 nM	0.864	–
[10], 1000 nM	1.16	–
[10], 3000 nM	2.16	–
[11], 4.1 nM	0.452	–
[11], 12.3 nM	0.55	–
[11], 37 nM	1.12	–
[11], 111.1 nM	0.652	–
[11], 333.3 nM	0.826	–
[11], 1000 nM	1.22	–
[11], 3000 nM	2.48	–
[12], 4.1 nM	0.472	–
[12], 12.3 nM	0.514	–
[12], 37 nM	0.843	–
[12], 111.1 nM	0.747	–
[12], 333.3 nM	1.66	–
[12], 1000 nM	0.95	–
[12], 3000 nM	1.31	–
[13], 4.1 nM	0.541	–
[13], 12.3 nM	0.746	–
[13], 37 nM	0.59	–
[13], 111.1 nM	1.02	–
[13], 333.3 nM	1.3	–
[13], 1000 nM	1.38	–
[13], 3000 nM	3.02	–
[14], 4.1 nM	0.624	–
[14], 12.3 nM	0.753	–
[14], 37 nM	0.623	–
[14], 111.1 nM	0.801	–
[14], 333.3 nM	0.702	–
[14], 1000 nM	1.37	–
[14], 3000 nM	1.12	–

CN(C(=O)CN(CCO)CC(=O)N(C)C(C)(C)Cc1ccccc1)C(C)(C)Cc1ccccc1 [Oxethazaine]
Conditions	phenotypic distance	surviving fraction
[1], 4.1 nM	–	1.09
[1], 12.3 nM	–	0.968
[1], 37 nM	–	0.928
[1], 111.1 nM	–	1.04
[1], 333.3 nM	–	1.07
[1], 1000 nM	–	0.99
[1], 3000 nM	–	0.951
[2], 4.1 nM	–	0.958
[2], 12.3 nM	–	1
[2], 37 nM	–	1.03
[2], 111.1 nM	–	0.955
[2], 333.3 nM	–	1.12
[2], 1000 nM	–	0.969
[2], 3000 nM	–	1.08
[3], 4.1 nM	–	1.08
[3], 12.3 nM	–	0.989
[3], 37 nM	–	1.05
[3], 111.1 nM	–	0.943
[3], 333.3 nM	–	1.15
[3], 1000 nM	–	1
[3], 3000 nM	–	1.16
[4], 4.1 nM	–	0.961
[4], 12.3 nM	–	0.975
[4], 37 nM	–	1.03
[4], 111.1 nM	–	0.93
[4], 333.3 nM	–	1.09
[4], 1000 nM	–	1.01
[4], 3000 nM	–	1.01
[5], 4.1 nM	–	1.02
[5], 12.3 nM	–	0.88
[5], 37 nM	–	1.05
[5], 111.1 nM	–	0.971
[5], 333.3 nM	–	1.19
[5], 1000 nM	–	1.2
[5], 3000 nM	–	0.914
[6], 4.1 nM	–	1.01
[6], 12.3 nM	–	0.936
[6], 37 nM	–	0.966
[6], 111.1 nM	–	0.964
[6], 333.3 nM	–	0.991
[6], 1000 nM	–	0.948
[6], 3000 nM	–	1
[7], 4.1 nM	–	0.961
[7], 12.3 nM	–	0.979
[7], 37 nM	–	1.02
[7], 111.1 nM	–	1.05
[7], 333.3 nM	–	0.978
[7], 1000 nM	–	1.1
[7], 3000 nM	–	0.933
[8], 4.1 nM	0.675	–
[8], 12.3 nM	0.799	–
[8], 37 nM	3.23	–
[8], 111.1 nM	0.762	–
[8], 333.3 nM	0.641	–
[8], 1000 nM	3.59	–
[8], 3000 nM	0.501	–
[9], 4.1 nM	1.27	–
[9], 12.3 nM	0.301	–
[9], 37 nM	0.673	–
[9], 111.1 nM	0.767	–
[9], 333.3 nM	0.702	–
[9], 1000 nM	0.599	–
[9], 3000 nM	0.942	–
[10], 4.1 nM	0.766	–
[10], 12.3 nM	0.639	–
[10], 37 nM	0.581	–
[10], 111.1 nM	0.521	–
[10], 333.3 nM	0.535	–
[10], 1000 nM	0.928	–
[10], 3000 nM	0.763	–
[11], 4.1 nM	1.19	–
[11], 12.3 nM	0.518	–
[11], 37 nM	0.559	–
[11], 111.1 nM	0.664	–
[11], 333.3 nM	0.743	–
[11], 1000 nM	0.675	–
[11], 3000 nM	1.16	–
[12], 4.1 nM	0.701	–
[12], 12.3 nM	0.608	–
[12], 37 nM	0.585	–
[12], 111.1 nM	0.716	–
[12], 333.3 nM	0.77	–
[12], 1000 nM	0.595	–
[12], 3000 nM	0.878	–
[13], 4.1 nM	0.467	–
[13], 12.3 nM	0.582	–
[13], 37 nM	0.373	–
[13], 111.1 nM	0.789	–
[13], 333.3 nM	0.553	–
[13], 1000 nM	0.494	–
[13], 3000 nM	1.79	–
[14], 4.1 nM	1.79	–
[14], 12.3 nM	0.53	–
[14], 37 nM	0.88	–
[14], 111.1 nM	0.534	–
[14], 333.3 nM	0.669	–
[14], 1000 nM	0.43	–
[14], 3000 nM	1.12	–

CCCCC1C(=O)N(c2ccccc2)N(c2ccc(O)cc2)C1=O (centres undefined) [Oxyphenbutazone]
Conditions	phenotypic distance	surviving fraction
[1], 4.1 nM	–	1.06
[1], 12.3 nM	–	1.12
[1], 37 nM	–	0.991
[1], 111.1 nM	–	1.1
[1], 333.3 nM	–	1.11
[1], 1000 nM	–	1.04
[1], 3000 nM	–	0.978
[2], 4.1 nM	–	1.04
[2], 12.3 nM	–	1.09
[2], 37 nM	–	0.947
[2], 111.1 nM	–	1.05
[2], 333.3 nM	–	0.957
[2], 1000 nM	–	1.05
[2], 3000 nM	–	1.1
[3], 4.1 nM	–	1.06
[3], 12.3 nM	–	1.05
[3], 37 nM	–	1.06
[3], 111.1 nM	–	1.06
[3], 333.3 nM	–	0.96
[3], 1000 nM	–	1.02
[3], 3000 nM	–	1.07
[4], 4.1 nM	–	0.93
[4], 12.3 nM	–	0.906
[4], 37 nM	–	0.918
[4], 111.1 nM	–	1.01
[4], 333.3 nM	–	0.939
[4], 1000 nM	–	1.07
[4], 3000 nM	–	0.941
[5], 4.1 nM	–	0.971
[5], 12.3 nM	–	1.07
[5], 37 nM	–	0.978
[5], 111.1 nM	–	1.07
[5], 333.3 nM	–	1.04
[5], 1000 nM	–	1.11
[5], 3000 nM	–	1.01
[6], 4.1 nM	–	1.04
[6], 12.3 nM	–	1.02
[6], 37 nM	–	0.983
[6], 111.1 nM	–	0.979
[6], 333.3 nM	–	1.06
[6], 1000 nM	–	0.965
[6], 3000 nM	–	0.938
[7], 4.1 nM	–	0.985
[7], 12.3 nM	–	0.955
[7], 37 nM	–	0.951
[7], 111.1 nM	–	1.13
[7], 333.3 nM	–	1.03
[7], 1000 nM	–	0.989
[7], 3000 nM	–	1.08
[8], 4.1 nM	0.562	–
[8], 12.3 nM	0.782	–
[8], 37 nM	0.706	–
[8], 111.1 nM	0.835	–
[8], 333.3 nM	1.34	–
[8], 1000 nM	0.708	–
[8], 3000 nM	0.404	–
[9], 4.1 nM	0.965	–
[9], 12.3 nM	0.677	–
[9], 37 nM	0.635	–
[9], 111.1 nM	0.699	–
[9], 333.3 nM	0.588	–
[9], 1000 nM	0.698	–
[9], 3000 nM	0.735	–
[10], 4.1 nM	0.723	–
[10], 12.3 nM	0.56	–
[10], 37 nM	0.689	–
[10], 111.1 nM	0.5	–
[10], 333.3 nM	0.608	–
[10], 1000 nM	0.532	–
[10], 3000 nM	0.618	–
[11], 4.1 nM	0.939	–
[11], 12.3 nM	1.97	–
[11], 37 nM	0.848	–
[11], 111.1 nM	0.364	–
[11], 333.3 nM	0.728	–
[11], 1000 nM	0.522	–
[11], 3000 nM	0.632	–
[12], 4.1 nM	0.618	–
[12], 12.3 nM	0.62	–
[12], 37 nM	0.522	–
[12], 111.1 nM	0.833	–
[12], 333.3 nM	0.434	–
[12], 1000 nM	1.17	–
[12], 3000 nM	0.608	–
[13], 4.1 nM	0.925	–
[13], 12.3 nM	0.967	–
[13], 37 nM	0.794	–
[13], 111.1 nM	0.629	–
[13], 333.3 nM	0.441	–
[13], 1000 nM	0.546	–
[13], 3000 nM	0.652	–
[14], 4.1 nM	0.918	–
[14], 12.3 nM	0.982	–
[14], 37 nM	0.908	–
[14], 111.1 nM	0.496	–
[14], 333.3 nM	0.356	–
[14], 1000 nM	0.51	–
[14], 3000 nM	0.472	–
